Reference: patent US9884813B1, “Pharmaceutically acceptable salts of B-guanidinopropionic acid with improved properties and uses thereof” (Rgenix, Inc., priority 2017, dated 2018)
“Also recorded” adds a separate entry of the source. Read-outs that look alike come from different tables or passages of the source.

Experiments:
Assay type in all cases: physicochemical
[1] = Solid form stability under stressed conditions (wet, dry, high humidity) by XRPD; settings: for Dry_XRPD pattern: dry (45° C. under vacuum); for Humid_XRPD pattern: high humidity (RH >95%); for Wet_XRPD pattern: wet
Protocol: The solid form stability of each salt was studied by XRPD under stressed conditions: wet, dry (45° C. under vacuum) and high humidity (RH >95%).

[2] = Solid form stability of salts in different solvents (slurry, XRPD); settings: 48 hours, room temperature
Protocol: Three salts were studied for solid form stability in water (disproportionation test), methanol, acetonitrile, and acetone:water (9:1) for 48 hours at room temperature.

[3] = Dynamic vapor sorption (DVS) with XRPD of the post-DVS sample; settings: for solid form by XRPD after the DVS experiment: post DVS sample
Protocol: Samples were analyzed using an Aquadyne DVS-2 gravimetric water sorption analyzer. The relative humidity was adjusted between 2-95% and the weight of the sample was continuously monitored and recorded.
[…]: β-GPA maleate (1:1) Form II, β-GPA fumarate (1:1), β-GPA maleate (2:1), β-GPA succinate (2:1) and β-GPA oxalate (1:1) were analyzed by DVS experiment followed by XRPD analysis of the sample at the end of the experiment.
Sample 2162-64-1 was analyzed by DVS in triplicate and the post DVS samples were characterized by XRPD to identify the form at the end of the experiment.

[4] = Flowability measurement using Hanson Flodex unit; settings: for flow character from the experimental data: summary of density and Flodex measurements
Description: Method: A cylindrical vessel is secured to the stand and above that a funnel is also secured such that the bottom of the funnel is close to the vessel. A powder load of ≈50-60 g is then poured through the funnel into the middle of the cylinder. The lever device is pulled to open the hole in the disk quickly and without vibration. If a powder slowly flows through the small-diameter holes, leaving a cavity shaped like an upside-down, truncated cone, the test is considered positive. If a powder flocculates in bulk and falls abruptly, forming a cylindrical cavity, the test is considered negative. […] If the experiment is negative, the powder is tested again with a disk having a larger hole.

[5] = Solid form stability at 40° C. and 75% humidity; settings: 40° C. and 75% RH for seven days
Protocol: Solid form stability studies of β-GPA fumarate, succinate, and oxalate were carried out at 40° C. and 75% RH for seven days. Around 30 mg of the salts were placed in 4 mL vials which were placed in a saturated solution of sodium chloride (2 mL) with lids closed at 40° C. […]

[6] = Bulk and tapped density
Protocol: The bulk density of β-GPA oxalate (Pattern 18 B), succinate (Pattern 15A), and fumarate (Pattern 7A) were determined by pouring in a known amount of salt (g) into a measuring cylinder. The volume (Vi) occupied by the salt was recorded and the bulk density (ρB) was determined using equation 1. ρB=g/Vi (1)
The tapped densities of the salts were determined using a Tap density analyzer. A known amount of salt was poured (g) into a measuring cylinder and the initial volume was recorded and tapped using a Tap density analyzer. The final volume (Vf) after tapping was recorded and the tapped density (ρT) was calculated by using equation 2. ρT=g/Vf (2)

[7] = Carr's index and Hausner ratio (predicted flowability)
Description: The flow properties of β-GPA are sub-optimal. The bulk density is 0.389 g/cc and the tapped density is 0.627 g/cc. These measurements can be used to calculate the Carr's index and Hausner ratio for a substance. The Carr's index and Hausner ratio are indicators of flowability of a powder. As known in the art, e.g., as described in Carr R. L. Chem. Eng. 1965, 72, 163-168, the relationship to flowability of a powder to the Carr's index and Hausner ratio is based on the scale shown in Table 6 below.
Carr's index or Carr's compressibility index (C) is an indication of the compressibility of a powder. It can be calculated using the equation below: Carr's index (C)=100(Vi−Vf)/Vi (3) A Carr's index greater than 25 is considered to be an indication of poor flowability while a value below 15 is an indication of good flowability.
The Hausner ratio is a number that is correlated to the flowability of a powder or granular material. It is calculated by using the equation below: Hausner ratio=Vi/Vf (4)

[8] = as above; settings: Table 18, scale of Table 17
[9] = water (disproportionation test)
[10] = calculated from bulk and tapped volumes

## N=C(N)NCCC(=O)O.O=P(O)(O)O [β-GPA phosphate]
[1]
  Dry_XRPD pattern: Pattern 4A
  stability in dry conditions: stable
  Humid_XRPD pattern: Deliquesce
  stability under high humidity conditions: deliquesced
  Wet_XRPD pattern: Pattern 4A

## N=C(N)NCCC(=O)O.O=C(O)/C=C\C(=O)O [β-GPA maleate (1:1) Form II]
[2]; acetone:water (9:1)
  XRPD pattern after slurry: matched with the original pattern of the salt (Pattern 6D) along with some additional peaks
[2]; acetonitrile
  XRPD pattern after slurry: retain its XRPD pattern
[2]; methanol
  XRPD pattern after slurry: retain its XRPD pattern
[2]; [9]
  XRPD pattern after slurry: retained their XRPD patterns
[1]
  Dry_XRPD pattern: Pattern 6D
  Humid_XRPD pattern: Pattern 6D
  Wet_XRPD pattern: Pattern 6D
[3]
  moisture uptake during the DVS experiment: ~25%
  solid form by XRPD after the DVS experiment: no form change
[3]; at around 95% RH
  moisture uptake: around 25%

## CCS(=O)(=O)O.N=C(N)NCCC(=O)O [ethanesulfonic acid salt]
[1]
  stability in dry conditions: stable
  stability under high humidity conditions: deliquesced

## N=C(N)NCCC(=O)O.N=C(N)NCCC(=O)O.O=C(O)/C=C\C(=O)O [β-GPA maleate (2:1)]
[1]
  Dry_XRPD pattern: Pattern 6C
  Humid_XRPD pattern: Pattern 6B
  Wet_XRPD pattern: Pattern 6B

## CS(=O)(=O)O.N=C(N)NCCC(=O)O [β-GPA methanesulfonate]
[1]
  Dry_XRPD pattern: Pattern 19A
  stability in dry conditions: stable
  Humid_XRPD pattern: Deliquesce
  stability under high humidity conditions: deliquesced
  Wet_XRPD pattern: Pattern 19A

## N=C(N)NCCC(=O)O.O=C(O)C[C@H](O)C(=O)O [β-GPA malate (1:1)]
[1]
  Dry_XRPD pattern: Pattern 12A
  stability in dry conditions: stable
  Humid_XRPD pattern: Deliquesce
  stability under high humidity conditions: deliquesced
  Wet_XRPD pattern: Pattern 12A

## N=C(N)NCCC(=O)O.O=C(O)/C=C/C(=O)O [β-GPA fumarate]
[2]; [9]
  XRPD pattern after slurry: retained their XRPD patterns
[4]
  flow character from the experimental data: excellent
[3]
  solid form by XRPD after the DVS experiment: retained their XRPD; also recorded: presence of two peaks from the β-GPA
[5]
  solid form stability (XRPD): retained their original XRPD pattern; also recorded: stable

## N=C(N)NCCC(=O)O.O=C(O)/C=C/C(=O)O [β-GPA fumarate (1:1)]
[2]; acetone:water (9:1)
  XRPD pattern after slurry: retain their XRPD pattern
[2]; acetonitrile
  XRPD pattern after slurry: retain their XRPD pattern
[2]; methanol
  XRPD pattern after slurry: retain their XRPD pattern
[2]; water (disproportionation test), listed as 1:1 β-GPA fumarate
  XRPD pattern after slurry: retained their XRPD pattern
[1]
  Dry_XRPD pattern: Pattern 7A
  stability in dry conditions: stable
  Humid_XRPD pattern: Pattern 7A
  stability under high humidity conditions: stable
  Wet_XRPD pattern: Pattern 7A
[3]; listed as 1:1 β-GPA fumarate
  moisture uptake during the DVS experiment: < 1%
  solid form by XRPD after the DVS experiment: presence of β-GPA peaks along with Pattern 7A
[3]; listed as 1:1 fumarate salt
  solid form by XRPD after the DVS experiment: no form change
[5]; listed as 1:1 fumarate salt
  solid form stability (XRPD): stable

## N=C(N)NCCC(=O)O.O=C(O)/C=C\C(=O)O [β-GPA maleate (1:1) Form I]
[1]
  Dry_XRPD pattern: Pattern 6A
  stability in dry conditions: stable
  Humid_XRPD pattern: Pattern 6A
  stability under high humidity conditions: stable
  Wet_XRPD pattern: Pattern 6A

## Cl.NC(N)=NCCC(=O)O [β-GPA hydrochloride]
[1]
  Dry_XRPD pattern: Pattern 1A
  stability in dry conditions: stable
  Humid_XRPD pattern: Deliquesce
  stability under high humidity conditions: deliquesced
  Wet_XRPD pattern: Pattern 1A

## N=C(N)NCCC(=O)O.O=C(O)C(=O)O [β-GPA oxalate (1:1)]
[6]
  Bulk density: 0.505 g/cc
  Tapped density: 0.623 g/cc
[2]; acetone:water (9:1)
  XRPD pattern after slurry: retain their XRPD pattern
[2]; acetonitrile
  XRPD pattern after slurry: retain their XRPD pattern
[2]; methanol
  XRPD pattern after slurry: retain their XRPD pattern
[2]; [9]
  XRPD pattern after slurry: retained their XRPD patterns
[2]; water (disproportionation test), listed as 1:1 β-GPA oxalate
  XRPD pattern after slurry: retained their XRPD pattern
[4]; Disc pore size 12 mm
  Did solid pass?: No
[4]; Disc pore size 18 mm
  Did solid pass?: No
[4]; Disc pore size 24 mm
  Did solid pass?: No
[4]; Disc pore size 26 mm
  Did solid pass?: Yes
[4]; Disc pore size 28 mm
  Did solid pass?: Yes
[4]; Disc pore size 30 mm
  Did solid pass?: Yes
[4]
  flow character from the experimental data: fair
[7]; [10]
  Carr's index: 18.7
  Hausner ratio: 1.23
[7]; predicted, scale of Table 6 (Carr's index)
  Flow character: Fair (16-20)
[8]
  Flow character: Fair (16-20)
[1]
  Dry_XRPD pattern: Pattern 18A
  stability in dry conditions: stable
  Humid_XRPD pattern: Pattern 18A
  stability under high humidity conditions: stable
  Wet_XRPD pattern: Pattern 18A
[3]
  solid form by XRPD after the DVS experiment: retained their XRPD
[3]; listed as 1:1 oxalate salt
  solid form by XRPD after the DVS experiment: no form change
[3]; listed as 1:1 β-GPA oxalate
  solid form by XRPD after the DVS experiment: no form change
[5]
  solid form stability (XRPD): retained their original XRPD pattern; also recorded: stable
[5]; listed as 1:1 oxalate salt
  solid form stability (XRPD): stable
